Laboratory results from patent US20250268826A1, “IONIZABLE LIPIDOID COMPOSITIONS AND THERAPEUTIC USES THEREOF” (Flagship Pioneering Innovations VII, LLC, priority 2023, published 2025).

What was measured:
Format in all cases: physicochemical
[1] = Encapsulation efficiency (EE %) by fluorescence based Ribogreen assay
[2] = LNP Zeta potential measured using a Zetasizer (Malvern); conditions: for Zeta potential: hEPO mRNA, N:P 6; for Zeta potential (mV): Table 10, LNP with hEPO mRNA, Lipid:DSPC:Cholesterol:DMG-PEG2k 50:10:38.5:1.5 mol %, N:P ratio 6
[3] = LNP size and polydispersity index (PDI) by dynamic light scattering (DLS)
[4] = Table 5, LNP 50:10:38.5:1.5 mol %, hEPO mRNA, N:P 6
[5] = Table 5, LNP 50:10:38.5:1.5 mol %
[6] = Table 5, LNP Lipid:DSPC:Cholesterol:DMG-PEG2k 50:10:38.5:1.5 mol %, hEPO mRNA, N:P 6
[7] = Table 5, LNP 60:0:38.5:1.5 mol %, hEPO mRNA, N:P 6
[8] = Table 6, LNP 50:10:38.5:1.5 mol %, hEPO mRNA, N:P 6
[9] = Table 6, LNP 60:0:38.5:1.5 mol %, hEPO mRNA, N:P 6
[10] = Table 6, LNP 50:10:38.5:1.5 mol %
[11] = Table 6, LNP 60:0:38.5:1.5 mol %
[12] = Table 6, LNP lipid:DSPC:Cholesterol:DMG-PEG2k 50:10:38.5:1.5 mol %, hEPO mRNA, N:P 6
[13] = Table 7, LNP 30:10:58.5:1.5 mol %, helper lipid DOPC, hEPO mRNA, N:P 6
[14] = Table 7, LNP 30:10:58.5:1.5 mol %, helper lipid DOPE, hEPO mRNA, N:P 6
[15] = Table 7, LNP 30:10:58.5:1.5 mol %, helper lipid DSPC, hEPO mRNA, N:P 6
[16] = Table 7, LNP 50:10:38.5:1.5 mol %, helper lipid DOPC, hEPO mRNA, N:P 6
[17] = Table 7, LNP 50:10:38.5:1.5 mol %, helper lipid DOPE, hEPO mRNA, N:P 6
[18] = Table 7, LNP 50:10:38.5:1.5 mol %, helper lipid DSPC, hEPO mRNA, N:P 6
[19] = Table 8, LNP 50:10:38.5:1.5 mol %, hEPO mRNA, N:P 6
[20] = Table 8, LNP 50:10:38.5:1.5 mol %
[21] = Table 8, LNP Lipid:DSPC:Cholesterol:DMG-PEG2k 50:10:38.5:1.5 mol %, hEPO mRNA, N:P 6
[22] = Table 10, LNP with hEPO mRNA, Lipid:DSPC:Cholesterol:DMG-PEG2k 50:10:38.5:1.5 mol %, N:P ratio 6, Ribogreen assay
[23] = Table 10, LNP with hEPO mRNA, Lipid:DSPC:Cholesterol:DMG-PEG2k 50:10:38.5:1.5 mol %, N:P ratio 6, DLS

CCCCCCCCCCC(CCCC)C(=O)OCCN(CCOC(=O)C(CCCC)CCCCCCCCCC)C(=O)C(C)N (stereo not drawn) [Compound 612]
Encapsulation Efficiency % [1, 4]: 99.8% | Zeta potential [2, 5]: −3.371 mV | PDI [3, 4]: 0.403 | Size [3, 6]: 69.9 nm

CCCCCCCCCCCCC(CC)C(=O)OCCN(CCOC(=O)C(CC)CCCCCCCCCCCC)C(=O)C(C)N (stereo not drawn) [Compound 613]
Encapsulation Efficiency % [1, 4]: 99.8% | Zeta potential [2, 5]: −6.511 mV | PDI [3, 4]: 0.236 | Size [3, 6]: 53.7 nm

CCCCCCCCCC(CCCCCCCCC)C(=O)OCCN(CCOC(=O)C(CCCCCCCCC)CCCCCCCCC)C(=O)C(C)N (stereo not drawn) [Compound 614]
Encapsulation Efficiency % [1, 4]: 99.7% | Zeta potential [2, 5]: −8.485 mV | PDI [3, 4]: 0.443 | Size [3, 6]: 79.1 nm

CCCCCC(CCCCC)C(=O)OCCN(CCOC(=O)C(CCCCC)CCCCC)C(=O)C(N)Cc1ccccc1 (stereo not drawn) [Compound 615]
Encapsulation Efficiency % [1, 4]: 98.7% | Zeta potential [2, 5]: −11.83 mV | PDI [3, 4]: 0.408 | Size [3, 6]: 104.2 nm

CCCCCCCCC(CC)C(=O)OCCN(CCOC(=O)C(CC)CCCCCCCC)C(=O)C(N)Cc1ccccc1 (stereo not drawn) [Compound 617]
Encapsulation Efficiency % [1, 4]: 99.1% | Zeta potential [2, 5]: −5.824 mV | PDI [3, 4]: 0.32 | Size [3, 6]: 63.7 nm

CCCCCCCC(CCCCCCC)C(=O)OCCN(CCOC(=O)C(CCCCCCC)CCCCCCC)C(=O)C(N)Cc1ccccc1 (stereo not drawn) [Compound 618]
Encapsulation Efficiency % [1, 4]: 97.9% | Encapsulation Efficiency % [1, 7]: 92.8% | Zeta potential [2, 5]: −13.69 mV | Zeta potential ([2]; Table 5, LNP 60:0:38.5:1.5 mol %): −17.91 mV | PDI [3, 4]: 0.304 | PDI [3, 7]: 0.116 | Size [3, 7]: 211.9 nm | Size [3, 6]: 53.9 nm

CCCCCCCCCCC(CCCC)C(=O)OCCN(CCOC(=O)C(CCCC)CCCCCCCCCC)C(=O)C(N)Cc1ccccc1 (stereo not drawn) [Compound 619]
Encapsulation Efficiency % [1, 4]: 98.1% | Zeta potential [2, 5]: −11.63 mV | PDI [3, 4]: 0.183 | Size [3, 6]: 60.7 nm

CCCCCCCCCCCCC(CC)C(=O)OCCN(CCOC(=O)C(CC)CCCCCCCCCCCC)C(=O)C(N)Cc1ccccc1 (stereo not drawn) [Compound 620]
Encapsulation Efficiency % [1, 4]: 99% | Zeta potential [2, 5]: −5.044 mV | PDI [3, 4]: 0.23 | Size [3, 6]: 56.7 nm

CCCCCCCCCC(CCCCCCCCC)C(=O)OCCN(CCOC(=O)C(CCCCCCCCC)CCCCCCCCC)C(=O)C(N)Cc1ccccc1 (stereo not drawn) [Compound 621]
Encapsulation Efficiency % [1, 4]: 98.9% | Zeta potential [2, 5]: −10.9 mV | PDI [3, 4]: 0.332 | Size [3, 6]: 49.4 nm

CCCCCCCCC(CCCCCC)C(=O)OCCN(CCOC(=O)C(CCCCCC)CCCCCCCC)C(=O)CCN (stereo not drawn) [Compound 801]
Encapsulation Efficiency % [1, 8]: 98.5% | Encapsulation Efficiency % [1, 9]: 98.4% | Zeta potential [2, 10]: −1.5 mV | Zeta potential [2, 11]: 1.6 mV | PDI [3, 8]: 0.436 | PDI [3, 9]: 0.169 | Size [3, 9]: 93.6 nm | Size [3, 12]: 105.8 nm

CCCCCCCCC(CCCCCC)C(=O)OCCN(CCOC(=O)C(CCCCCC)CCCCCCCC)C(=O)CC(C)N (stereo not drawn) [Compound 802]
Encapsulation Efficiency % [1, 8]: 98.4% | Encapsulation Efficiency % [1, 9]: 98.4% | Zeta potential [2, 10]: −1.8 mV | Zeta potential [2, 11]: 0.1 mV | PDI [3, 8]: 0.224 | PDI [3, 9]: 0.195 | Size [3, 9]: 87.6 nm | Size [3, 12]: 104.5 nm

CCCCCCCCC(CCCCCC)C(=O)OCCN(CCOC(=O)C(CCCCCC)CCCCCCCC)C(=O)CCCN (stereo not drawn) [Compound 804]
Encapsulation Efficiency % [1, 8]: 98.3% | Encapsulation Efficiency % [1, 9]: 99.9% | Zeta potential [2, 10]: −1.7 mV | Zeta potential [2, 11]: 2.8 mV | PDI [3, 8]: 0.281 | PDI [3, 9]: 0.147 | Size [3, 9]: 81.1 nm | Size [3, 12]: 96 nm

CCCCCCCCC(CCCCCC)C(=O)OCCN(CCOC(=O)C(CCCCCC)CCCCCCCC)C(=O)CCC(C)N (stereo not drawn) [Compound 805]
Encapsulation Efficiency % [1, 8]: 98.3% | Encapsulation Efficiency % [1, 9]: 99.9% | Zeta potential [2, 10]: −0.2 mV | Zeta potential [2, 11]: 3 mV | PDI [3, 8]: 0.214 | PDI [3, 9]: 0.137 | Size [3, 9]: 84.7 nm | Size [3, 12]: 110.2 nm

CCCCCCCCC(CCCCCC)C(=O)OCCN(CCOC(=O)C(CCCCCC)CCCCCCCC)C(=O)CCCN(C)C (stereo not drawn) [Compound 807]
Encapsulation Efficiency % [1, 8]: 98.3% | Encapsulation Efficiency % [1, 9]: 99.7% | Zeta potential [2, 10]: −1.9 mV | Zeta potential [2, 11]: −0.6 mV | PDI [3, 8]: 0.126 | PDI [3, 9]: 0.079 | Size [3, 9]: 114.7 nm | Size [3, 12]: 77.7 nm

CCCCCCCCC(CCCCCC)C(=O)OCCN(CCOC(=O)C(CCCCCC)CCCCCCCC)C(=O)CCN(C)C (stereo not drawn) [Compound 808]
Encapsulation Efficiency % [1, 8]: 97% | Encapsulation Efficiency % [1, 9]: 99.2% | Encapsulation Efficiency % [1, 13]: 99.5% | Encapsulation Efficiency % [1, 14]: 99.7% | Encapsulation Efficiency % [1, 15]: 99.6% | Encapsulation Efficiency % [1, 16]: 98.8% | Encapsulation Efficiency % [1, 17]: 99.5% | Encapsulation Efficiency % [1, 18]: 98.8% | Zeta potential [2, 10]: −0.3 mV | Zeta potential [2, 11]: −0.4 mV | Zeta potential ([2]; Table 7, LNP 30:10:58.5:1.5 mol %, helper lipid DOPC): −9.115 mV | Zeta potential ([2]; Table 7, LNP 30:10:58.5:1.5 mol %, helper lipid DOPE): −10.16 mV | Zeta potential ([2]; Table 7, LNP 30:10:58.5:1.5 mol %, helper lipid DSPC): −7.184 mV | Zeta potential ([2]; Table 7, LNP 50:10:38.5:1.5 mol %, helper lipid DOPC): −8.233 mV | Zeta potential ([2]; Table 7, LNP 50:10:38.5:1.5 mol %, helper lipid DOPE): −7.52 mV | Zeta potential ([2]; Table 7, LNP 50:10:38.5:1.5 mol %, helper lipid DSPC): −7.7 mV | PDI [3, 8]: 0.114 | PDI [3, 9]: 0.012 | Size [3, 9]: 131.4 nm | Size [3, 12]: 96.3 nm | PDI [3, 13]: 0.113 | Size [3, 13]: 120.1 nm | PDI [3, 14]: 0.105 | Size [3, 14]: 79.1 nm | PDI [3, 15]: 0.033 | Size [3, 15]: 93.8 nm | PDI [3, 16]: 0.131 | Size [3, 16]: 99.1 nm | PDI [3, 17]: 0.214 | Size [3, 17]: 134.5 nm | PDI [3, 18]: 0.13 | Size ([3]; Table 7, LNP ionizable lipid:Helper Lipid:Cholesterol:DMG-PEG2k 50:10:38.5:1.5 mol %, helper lipid DSPC, hEPO mRNA, N:P 6): 114.4 nm

CCCCCCCCC(CCCCCC)C(=O)OCCN(CCOC(=O)C(CCCCCC)CCCCCCCC)C(=O)CCNC.Cl (stereo not drawn) [Compound 904]
Encapsulation Efficiency % [1, 19]: 100% | Zeta potential [2, 20]: −1.6 mV | PDI [3, 19]: 0.189 | Size [3, 21]: 86.7 nm

CCCCCCCCC(CCCCCC)C(=O)OCCN(CCOC(=O)C(CCCCCC)CCCCCCCC)C(=O)CCNCC.Cl (stereo not drawn) [Compound 905]
Encapsulation Efficiency % [1, 19]: 100% | Zeta potential [2, 20]: −2.9 mV | PDI [3, 19]: 0.204 | Size [3, 21]: 70.4 nm

CCCCCCCCC(CCCCCC)C(=O)OCCN(CCOC(=O)C(CCCCCC)CCCCCCCC)C(=O)CCNCCC.Cl (stereo not drawn) [Compound 908]
Encapsulation Efficiency % [1, 19]: 100% | Zeta potential [2, 20]: −8 mV | PDI [3, 19]: 0.215 | Size [3, 21]: 69.2 nm

CCCCCCCC/C=C\CCCCCCCC(=O)OCCN(CCOC(=O)C(CCCCCC)CCCCCCCC)C(=O)CCN(CC)CC (stereo not drawn) [Compound 917a]
Encapsulation Efficiency % [1, 22]: 43.4% | Zeta potential (mV) [2]: −5.5 mV | PDI [3, 23]: 0.124 | Size (nm) [3, 23]: 82.8 nm

CC/C=C\CCCCC(=O)OCCN(CCOC(=O)C(CCCCCC)CCCCCCCC)C(=O)CCN(CC)CC (stereo not drawn) [Compound 917c]
Encapsulation Efficiency % [1, 22]: 84% | Zeta potential (mV) [2]: −4.5 mV | PDI [3, 23]: 0.122 | Size (nm) [3, 23]: 106.9 nm
